pEC50, pIC50: −log10 of the molar value.
Columns and labels:
[1] = target: T1, HCV NS5B RdRp genotype 1b (Hepatitis C virus genotype 1b, UniProt Q9WMX2); assay: Modified HCV NS5B RdRp enzyme assay (with preincubation); assay type: biochemical; conditions: modified method (with preincubation)
T1 construct: The protein was expressed with an 18 amino acid C-terminal truncation to enhance the solubility; made in house; host or cells: E. coli BL21 (DE3), pET21a
How it was run: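 Seven-point IC50s were derived from SPA-based ³H-UTP incorporation after 4 h at 30 °C (Hepes pH 7.5, 2% DMSO). Compound was first mixed with 14 nM Δ18 NS5B genotype 1b enzyme. Then 0.2 nM polyA, 0.29 μM UTP and bead-bound oligo-dT12 (20 nM) were added.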

HCV replicon = HCV replicon FRET assay; assay type: cell-based; conditions: Hepatitis C virus; FRET assay; read-out: EC50
How it was run: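 Replicon cells (± Renilla luciferase reporter) incubated with titrated compound at 37 °C; NS3 protease activity read by FRET peptide cleavage (20 uM EDANS/DABCYL substrate, 340/490 nm kinetic) or luciferase.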

T1 sequence (Q9WMX2 2420-2992): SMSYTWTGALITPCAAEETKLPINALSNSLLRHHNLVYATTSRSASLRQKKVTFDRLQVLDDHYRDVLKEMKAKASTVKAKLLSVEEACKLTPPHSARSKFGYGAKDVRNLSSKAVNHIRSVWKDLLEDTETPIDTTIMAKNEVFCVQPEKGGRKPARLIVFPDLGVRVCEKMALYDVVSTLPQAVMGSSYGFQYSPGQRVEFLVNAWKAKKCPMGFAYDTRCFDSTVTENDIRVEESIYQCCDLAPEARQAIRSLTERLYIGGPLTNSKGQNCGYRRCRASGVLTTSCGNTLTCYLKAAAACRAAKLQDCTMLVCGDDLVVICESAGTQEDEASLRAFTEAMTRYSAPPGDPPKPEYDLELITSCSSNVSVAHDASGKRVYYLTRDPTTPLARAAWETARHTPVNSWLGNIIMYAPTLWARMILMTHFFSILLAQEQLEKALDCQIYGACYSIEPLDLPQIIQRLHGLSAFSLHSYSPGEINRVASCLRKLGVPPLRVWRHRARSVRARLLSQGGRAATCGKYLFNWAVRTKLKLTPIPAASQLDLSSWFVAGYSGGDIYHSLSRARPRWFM

## O=C(O)/C=C/c1ccc(NC(=O)C2(NC(=O)c3ccc4c(C5CCCCC5)c5n(c4c3)CC(=O)Nc3ccccc3-5)CCCC2)cc1
[1]
  pIC50: 6.00 to 7.70
HCV replicon
  pEC50: 6.00 to 8.00

## COC(=O)c1ccc2c(C3CCCCC3)c3n(c2c1)CC(O)Cc1ccccc1-3 (stereo not drawn)
[1]
  pIC50: < 6.00
HCV replicon
  pEC50: 6.00 to 8.00

## CN(C)S(=O)(=O)NC(=O)c1ccc2c(C3CCCCC3)c3n(c2c1)CC=Cc1ncccc1-3
[1]
  pIC50: 6.00 to 7.70
HCV replicon
  pEC50: 5.00 to 6.00

## CN(C)S(=O)(=O)NC(=O)c1ccc2c(C3CCCCC3)c3n(c2c1)C[C@@H](O)[C@@H](O)c1ncccc1-3
[1]
  pIC50: 6.00 to 7.70
HCV replicon
  pEC50: < 5.00

## O=C(O)c1ccc2c(C3CCCCC3)c3n(c2c1)CC(O)Cc1ccccc1-3 (stereo not drawn)
[1]
  pIC50: 6.00 to 7.70
HCV replicon
  pEC50: 5.00 to 6.00

## COC(=O)/C=C/c1ccc(NC(=O)C2(NC(=O)c3ccc4c(C5CCCCC5)c5n(c4c3)CC(=O)Cc3ccccc3-5)CCCC2)cc1
[1]
  pIC50: < 6.00
HCV replicon
  pEC50: 6.00 to 8.00

## COC(=O)c1ccc2c(C3CCCCC3)c3n(c2c1)C/C(=N/O)Cc1ccccc1-3
[1]
  pIC50: < 6.00
HCV replicon
  pEC50: 6.00 to 8.00

## O=C(O)c1ccc2c(C3CCCCC3)c3n(c2c1)C/C(=N/O)Cc1ccccc1-3
[1]
  pIC50: 6.00 to 7.70
HCV replicon
  pEC50: 5.00 to 6.00

## Cn1cnc(S(=O)(=O)NC(=O)c2ccc3c(C4CCCCC4)c4n(c3c2)CC=Cc2ncccc2-4)c1
[1]
  pIC50: 6.00 to 7.70
HCV replicon
  pEC50: < 5.00

## Cn1cnc(S(=O)(=O)NC(=O)c2ccc3c(C4CCCCC4)c4n(c3c2)C[C@@H](O)[C@@H](O)c2ncccc2-4)c1
[1]
  pIC50: 6.00 to 7.70
HCV replicon
  pEC50: < 5.00

## CS(=O)(=O)NC(=O)c1ccc2c(C3CCCCC3)c3n(c2c1)CC=Cc1ncccc1-3
[1]
  pIC50: 6.00 to 7.70
HCV replicon
  pEC50: < 5.00

## O=C(NS(=O)(=O)c1ccccc1)c1ccc2c(C3CCCCC3)c3n(c2c1)CC=Cc1ncccc1-3
[1]
  pIC50: 6.00 to 7.70
HCV replicon
  pEC50: < 5.00

## O=C(NS(=O)(=O)Cc1ccccc1)c1ccc2c(C3CCCCC3)c3n(c2c1)CC=Cc1ncccc1-3
[1]
  pIC50: 6.00 to 7.70
HCV replicon
  pEC50: 5.00 to 6.00

## COC(=O)c1ccc2c(C3CCCCC3)c3n(c2c1)CC(CO)Cc1ccccc1-3 (stereo not drawn)
[1]
  pIC50: < 6.00
HCV replicon
  pEC50: 6.00 to 8.00

## O=C(O)c1ccc2c(C3CCCCC3)c3n(c2c1)CC(CO)Cc1ccccc1-3 (stereo not drawn)
[1]
  pIC50: 6.00 to 7.70
HCV replicon
  pEC50: 5.00 to 6.00

## O=C(NS(=O)(=O)Cc1ccccc1)c1ccc2c(C3CCCCC3)c3n(c2c1)CCCc1ncccc1-3
[1]
  pIC50: 6.00 to 7.70
HCV replicon
  pEC50: 5.00 to 6.00

## O=C(NS(=O)(=O)c1ccccc1)c1ccc2c(C3CCCCC3)c3n(c2c1)C[C@@H](O)[C@@H](O)c1ncccc1-3
[1]
  pIC50: 6.00 to 7.70
HCV replicon
  pEC50: 5.00 to 6.00

## CN(C)S(=O)(=O)NC(=O)c1ccc2c(C3CCCCC3)c3n(c2c1)CC(O)Cc1ccccc1-3 (stereo not drawn)
[1]
  pIC50: 6.00 to 7.70
HCV replicon
  pEC50: 6.00 to 8.00

## CS(=O)(=O)NC(=O)c1ccc2c(C3CCCCC3)c3n(c2c1)CCCc1ncccc1-3
[1]
  pIC50: 6.00 to 7.70
HCV replicon
  pEC50: 5.00 to 6.00

## NC(=O)c1ccc2c(C3CCCCC3)c3n(c2c1)CCCc1ncccc1-3
[1]
  pIC50: 6.00 to 7.70
HCV replicon
  pEC50: 5.00 to 6.00

## O=C(NS(=O)(=O)C1CC1)c1ccc2c(C3CCCCC3)c3n(c2c1)CC=Cc1ncccc1-3
[1]
  pIC50: 6.00 to 7.70
HCV replicon
  pEC50: 5.00 to 6.00

## CN(C)S(=O)(=O)NC(=O)c1ccc2c(C3CCCCC3)c3n(c2c1)CC(C(=O)N1CCN(c2ccncc2)CC1)=Cc1ccccc1-3
[1]
  pIC50: 6.00 to 7.70
HCV replicon
  pEC50: 6.00 to 8.00

## COC(=O)c1ccc2c(C3CCCCC3)c3n(c2c1)CC(C#N)=Cc1ccccc1-3
[1]
  pIC50: < 6.00
HCV replicon
  pEC50: 5.00 to 6.00

## COC(=O)c1ccc2c(C3CCCCC3)c3n(c2c1)C=C(C#N)Cc1ccccc1-3
[1]
  pIC50: < 6.00
HCV replicon
  pEC50: 6.00 to 8.00

## N#CC1=Cn2c(c(C3CCCCC3)c3ccc(C(=O)O)cc32)-c2ccccc2C1
[1]
  pIC50: 6.00 to 7.70
HCV replicon
  pEC50: 5.00 to 6.00

## COC(=O)c1ccc2c(C3CCCCC3)c3n(c2c1)CC(C(=O)O)=Cc1ccccc1-3
[1]
  pIC50: 6.00 to 7.70
HCV replicon
  pEC50: 6.00 to 8.00

## CN(C)C(=O)c1ccc2c(C3CCCCC3)c3n(c2c1)CC(C(=O)N1CCOCC1)=Cc1ccccc1-3
[1]
  pIC50: 6.00 to 7.70
HCV replicon
  pEC50: 5.00 to 6.00

## COC(=O)c1ccc2c(C3CCCCC3)c3n(c2c1)CCCc1cc(OCc2cc([N+](=O)[O-])ccc2F)ccc1-3
[1]
  pIC50: < 6.00
HCV replicon
  pEC50: 5.00 to 6.00

## COC(=O)/C=C/c1ccc(NC(=O)C2(NC(=O)c3ccc4c(C5CCCCC5)c5n(c4c3)CCCc3ncccc3-5)CCCC2)cc1
[1]
  pIC50: 6.00 to 7.70
HCV replicon
  pEC50: 6.00 to 8.00

## CN(C)S(=O)(=O)NC(=O)c1ccc2c(C3CCCCC3)c3n(c2c1)C[C@@H](C(=O)N1CCC(N2CCCC2)CC1)Cc1ccccc1-3
[1]
  pIC50: 6.00 to 7.70
HCV replicon
  pEC50: 6.00 to 8.00

## CN(C)S(=O)(=O)NC(=O)c1ccc2c(C3CCCCC3)c3n(c2c1)C[C@H](C(=O)N1CCC(N2CCCC2)CC1)Cc1ccccc1-3
[1]
  pIC50: 6.00 to 7.70
HCV replicon
  pEC50: 6.00 to 8.00

## O=C(C1=Cc2ccccc2-c2c(C3CCCCC3)c3ccc(C(=O)N4CCOCC4)cc3n2C1)N1CCOCC1
[1]
  pIC50: < 6.00
HCV replicon
  pEC50: 5.00 to 6.00

## N#Cc1ccc2c(C3CCCCC3)c3n(c2c1)CCCc1ncccc1-3
[1]
  pIC50: < 6.00
HCV replicon
  pEC50: 6.00 to 8.00

## c1cnc2c(c1)-c1c(C3CCCCC3)c3ccc(-c4nnn[nH]4)cc3n1CCC2
[1]
  pIC50: 6.00 to 7.70
HCV replicon
  pEC50: 5.00 to 6.00

## O=C(NS(=O)(=O)C1CC1)c1ccc2c(C3CCCCC3)c3n(c2c1)CCCc1ncccc1-3
[1]
  pIC50: 6.00 to 7.70
HCV replicon
  pEC50: 6.00 to 8.00

## O=C(NS(=O)(=O)c1ccccc1)c1ccc2c(C3CCCCC3)c3n(c2c1)CCCc1ncccc1-3
[1]
  pIC50: 6.00 to 7.70
HCV replicon
  pEC50: 5.00 to 6.00

## CN(C)S(=O)(=O)NC(=O)c1ccc2c(C3CCCCC3)c3n(c2c1)CCCc1ncccc1-3
[1]
  pIC50: 6.00 to 7.70
HCV replicon
  pEC50: 6.00 to 8.00

## Cn1cnc(S(=O)(=O)NC(=O)c2ccc3c(C4CCCCC4)c4n(c3c2)CCCc2ncccc2-4)c1
[1]
  pIC50: 6.00 to 7.70
HCV replicon
  pEC50: 5.00 to 6.00

## O=C(c1ccc2c(C3CCCCC3)c3n(c2c1)CC(C(=O)N1CCOCC1)Cc1ccccc1-3)N1CCOCC1 (stereo not drawn)
[1]
  pIC50: < 6.00
HCV replicon
  pEC50: 6.00 to 8.00

## O=C(O)c1ccc2c(C3CCCCC3)c3c4ccccc4[nH]c(=O)n3c2c1
[1]
  pIC50: < 6.00
HCV replicon
  pEC50: 6.00 to 8.00

## CN(C)S(=O)(=O)NC(=O)c1ccc2c(C3CCCCC3)c3n(c2c1)C[C@H](C(=O)N1CCOCC1)Cc1ccccc1-3
[1]
  pIC50: 6.00 to 7.70
HCV replicon
  pEC50: 6.00 to 8.00

## COC(=O)c1ccc2c(C3CCCCC3)c3n(c2c1)CC(C(=O)N(C)C)=Cc1ccccc1-3
[1]
  pIC50: < 6.00
HCV replicon
  pEC50: 5.00 to 6.00

## CN(C)C(=O)C1=Cc2ccccc2-c2c(C3CCCCC3)c3ccc(C(=O)O)cc3n2C1
[1]
  pIC50: 6.00 to 7.70
HCV replicon
  pEC50: 6.00 to 8.00

## CN(C)C(=O)C1=Cc2ccccc2-c2c(C3CCCCC3)c3ccc(C(=O)NS(=O)(=O)N(C)C)cc3n2C1
[1]
  pIC50: 6.00 to 7.70
HCV replicon
  pEC50: 6.00 to 8.00

## COC(=O)c1ccc2c(C3CCCCC3)c3n(c2c1)CC(C(=O)O)=Cc1cc(OCc2ccccc2)ccc1-3
[1]
  pIC50: < 6.00
HCV replicon
  pEC50: 5.00 to 6.00

## COC(=O)c1ccc2c(C3CCCCC3)c3n(c2c1)CC(C(=O)N1C[C@@H](C)O[C@@H](C)C1)=Cc1ccccc1-3
[1]
  pIC50: < 6.00
HCV replicon
  pEC50: 5.00 to 6.00

## C[C@@H]1CN(C(=O)C2=Cc3ccccc3-c3c(C4CCCCC4)c4ccc(C(=O)O)cc4n3C2)C[C@H](C)O1
[1]
  pIC50: 6.00 to 7.70
HCV replicon
  pEC50: 6.00 to 8.00

## C[C@@H]1CN(C(=O)C2=Cc3ccccc3-c3c(C4CCCCC4)c4ccc(C(=O)NS(=O)(=O)N(C)C)cc4n3C2)C[C@H](C)O1
[1]
  pIC50: 6.00 to 7.70
HCV replicon
  pEC50: 6.00 to 8.00

## COC(=O)C1=Cc2ccncc2-c2c(C3CCCCC3)c3ccc(C(=O)OC)cc3n2C1
[1]
  pIC50: < 6.00
HCV replicon
  pEC50: 5.00 to 6.00

## COC(=O)C1=Cc2cccnc2-c2c(C3CCCCC3)c3ccc(C(=O)OC)cc3n2C1
[1]
  pIC50: < 6.00
HCV replicon
  pEC50: 5.00 to 6.00

## COC(=O)c1ccc2c(C3CCCCC3)c3n(c2c1)CC(C(=O)N1CCOCC1)=Cc1cccnc1-3
[1]
  pIC50: < 6.00
HCV replicon
  pEC50: 5.00 to 6.00

From patent publication US7348425B2, “Inhibitors of HCV replication” (Bristol-Myers Squibb Company, priority 2004, dated 2008)
